Laboratory results as given in patent publication US5506217A, “Phosphonates as anti-cancer agents” (The University of British Columbia, priority 1994, dated 1996).

Columns and labels:
[1] = test system: B-16/F10 melanoma cells; experiment: B-16/F10 melanoma metastasis in C57BL/6 mice; format: in vivo; conditions: 10 mg/kg IM (5 days/week for 2 weeks)
Protocol: (§1) Highly metastatic B-16/F10 melanoma cells were injected into the tail veins of female C57BL/6 mice (1×10^5 cells per mouse). Treatment of one group of mice with the phosphonate compound of the above formula (compound VIII), dissolved into 0.5mL ethanol, 0.5 mL cremaphor and 9.0 mL phosphate buffered saline, began three days after the tumor cells were injected. lntramuscular injections of 0.2 mL of the phosphonate emulsion (10 mg/kg/day) were given for 5 days per week for 2 weeks. A second group of mice were treated with Adriamycin (10 mg/kg given intravenously on days 0, 4 and 8) as a known anti-cancer drug control group, while a third group of mice received the vehicle emulsion alone. The mice were examined every day for general health, behaviour and body weight. Counts of metastatic melanomic tumor colonies found in the lungs, general observations of metastasis to distant organs and examination of organs (liver, kidneys, lungs and spleen) were taken at autopsy 4 weeks after treatment.

[2] = test system: LLC tumor cells (Lewis Lung carcinoma); experiment: colonogenic cell survival assay; format: cell-based; conditions: Mus musculus, 120 h, read-out: Colonies formed after 5 days (% of control)
Protocol: (§2) Inhibition of colony formation in soft agar medium (colonogenic cell survival assay) is a more rigorous and direct measurement of cell kill or growth inhibition, and reflects the anti-cancer activity of the test compound. Briefly, tumor cells were cultured in petri dishes in methylcellulose, with or without a phosphonate test compound, and the number of colonies formed during a 5-day incubation period were counted.
Lewis Lung carcinoma (LLC), a cancer cell linc derived from […] of mice, was evaluated for its sensitivity to the cytotoxic activity of phosphonates of the following structure using the colonogenic cell survival assay (described above): [drawing 19]

[3] = test system: P388 DR (drug resistant P388); experiment: cytotoxicity IC50 (3H-thymidine uptake, colonogenic cell survival and MTT assays); format: cell-based; conditions: Mus musculus
From the text: (§3) A combination of ^3 H-Thymidine incorporation assay, colonogenic cell survival assay and MTT assay was used to determine cytotoxicity data of phosphonates in several mouse and human tumor cell lines.

[4] = test system: L1210 (mouse B-cell lymphoma); experiment: as above; format: cell-based
From the text: as §3

[5] = test system: 2008 (human ovarian cancer); experiment: as above; format: cell-based
From the text: as §3

[6] = test system: RPMI (advanced human melanoma); experiment: as above; format: cell-based
From the text: as §3

[7] = test system: MCF-7 (human breast cancer); experiment: as above; format: cell-based; conditions: MCF7
From the text: as §3

[8] = test system: HCT-116 (human rectal cancer); experiment: as above; format: cell-based
From the text: as §3

[9] = test system: MeWo (human melanoma cancer); experiment: as above; format: cell-based
From the text: as §3

[10] = test system: WEHI-3B (mouse granulocytic leukemia); experiment: as above; format: cell-based; conditions: WEHI3B
From the text: as §3

[11] = test system: HT29 (human colon cancer); experiment: as above; format: cell-based; conditions: HT-29
From the text: as §3

[12] = test system: P388 (mouse monocytic leukemia); experiment: as above; format: cell-based
From the text: as §3

[13] = test system: LLC (mouse Lewis lung carcinoma); experiment: as above; format: cell-based
From the text: as §3

[14] = test system: human melanoma cell line (RPMI-7951); experiment: RPMI-7951 melanoma growth and metastasis in nude mice, topical treatment; format: in vivo; conditions: topically twice a day, emulsion of 80 mg/mL; RPMI-7951 intradermal in nude mice
Protocol: Similar studies were also performed with a human melanoma cell line (RPMI-7951) grown in nude mice. Mice injected with RPMI-7951 cell line intradermally developed tumors. When the mice were treated topically, twice a day, with an emulsion of 80 mg/mL of the phosphonate compound of the formula shown above (compound VIII), the growth and metastasis of tumors were retarded by approximately 60%.

[15] = test system: HeL, a human erythroid leukemia; experiment: colonogenic cell survival assay; format: cell-based; conditions: 120 h, read-out: Colonies formed after 5-days (% of control)
Protocol: as §2
The anti-cancer activity of the phosphonate of the following formula: [drawing 16] against human leukemia and lymphoma was also studied using the colonogenic cell survival assay. DHL4, a human B cell lymphoma; HeL, a human erythroid leukemia: JRT3T3, a human T-cell lymphoma; and KG 1α, a human mycloid leukemia, were evaluated for their sensitivity to the cytotoxic activity of the phosphonate of the above formula (compound VIII).

[16] = test system: HT-29 (human colorectal cancer); experiment: colonogenic cell survival assay; format: cell-based; conditions: 120 h, read-out: Colonies formed (% of control)
Protocol: as §2
(§4) The anti-cancer activity of the phosphonate compound of the formula shown above (compound VIII) was examined in human melanoma and colorectal tumor cell lines using the colonogenic cell survival assay (described above). RPMI-7951 (human melanoma) and HT-29 (human colorectal cancer) tumor cell lines were evaluated for their sensitivity to the cytotoxic activity of the above phosphonate (compound VIII).

[17] = test system: RPMI-7951 (human melanoma); experiment: colonogenic cell survival assay; format: cell-based; conditions: 120 h, read-out: Colonies formed (% of control)
Protocol: as §2, §4

[18] = body weight and general toxicity in the B-16/F10 melanoma study; format: in vivo, C57BL/6 mice; conditions: for Body weight (grams): 10 mg/kg IM (5 days/week for 2 weeks)
Protocol: as §1

## CCCCCCCCCCCCCCCCOCC(CCP(=O)([O-])OCC[N+](C)(C)C)OC (stereo not drawn) [compound VIII]
[1]
  melanomic metastasis to distant organs at autopsy (in words): no traces of melanomic metastasis to distant organs were evident in five of six animals
[1]; Mouse 1
  Melanomic tumor colonies found in the lungs at autopsy: 2
[1]; Mouse 2
  Melanomic tumor colonies found in the lungs at autopsy: 0
[1]; Mouse 3
  Melanomic tumor colonies found in the lungs at autopsy: 1
[1]; Mouse 4
  Melanomic tumor colonies found in the lungs at autopsy: 0
[1]; Mouse 5
  Melanomic tumor colonies found in the lungs at autopsy: 0
[1]; Mouse 6
  Melanomic tumor colonies found in the lungs at autopsy: 3
[2]; 1.25 μM
  activity at 1.25 µM: 97 ± 9%
[2]; 2.5 μM
  activity at 2.5 µM: 81 ± 6%
[2]; 5 μM
  activity at 5 µM: 67 ± 5%
[2]; 10 μM
  activity at 10 µM: 53 ± 4%
[2]; 20 μM
  activity at 20 µM: 37 ± 5%
[2]; 40 μM
  activity at 40 µM: 19 ± 6%
[3]
  IC50: 5 µM
[4]
  IC50: 5 µM
[5]
  IC50: 27.8 µM
[6]
  IC50: 9 µM
[7]
  IC50: 35.3 µM
[8]
  IC50: 12 µM
[9]
  IC50: 15.7 µM
[10]
  IC50: 2.5 µM
[11]
  IC50: 9 µM
[12]
  IC50: 4.5 µM
[13]
  IC50: 10.6 µM
[14]
  retardation of growth and metastasis of tumors: approximately 60%
[15]; 1.25 μM
  activity at 1.25 µM: 91 ± 8%
[15]; 2.5 μM
  activity at 2.5 µM: 72 ± 5%
[15]; 5 μM
  activity at 5 µM: 58 ± 4%
[15]; 10 μM
  activity at 10 µM: 26 ± 5%
[15]; 20 μM
  activity at 20 µM: 12 ± 3%
[15]; 40 μM
  activity at 40 µM: 1 ± 0.5%
[16]; 2.5 μM
  activity at 2.5 µM: 74%
[16]; 5 μM
  activity at 5 µM: 51%
[16]; 10 μM
  activity at 10 µM: 22%
[16]; 20 μM
  activity at 20 µM: 8%
[16]; 40 μM
  activity at 40 µM: 0%
[17]; 2.5 μM
  activity at 2.5 µM: 68%
[17]; 5 μM
  activity at 5 µM: 43%
[17]; 10 μM
  activity at 10 µM: 13%
[17]; 20 μM
  activity at 20 µM: 3%
[17]; 40 μM
  activity at 40 µM: 0%
[18]; Mouse 1, day 0
  Body weight (grams): 19 grams
[18]; Mouse 1, day 12
  Body weight (grams): 20 grams
[18]; Mouse 1, day 26
  Body weight (grams): 23 grams
[18]; Mouse 2, day 0
  Body weight (grams): 19 grams
[18]; Mouse 2, day 12
  Body weight (grams): 20 grams
[18]; Mouse 2, day 26
  Body weight (grams): 22 grams
[18]; Mouse 3, day 0
  Body weight (grams): 19 grams
[18]; Mouse 3, day 12
  Body weight (grams): 21 grams
[18]; Mouse 3, day 26
  Body weight (grams): 24 grams
[18]; Mouse 4, day 0
  Body weight (grams): 20 grams
[18]; Mouse 4, day 12
  Body weight (grams): 21 grams
[18]; Mouse 4, day 26
  Body weight (grams): 25 grams
[18]; Mouse 5, day 0
  Body weight (grams): 19 grams
[18]; Mouse 5, day 12
  Body weight (grams): 21 grams
[18]; Mouse 5, day 26
  Body weight (grams): 24 grams
[18]; Mouse 6, day 0
  Body weight (grams): 20 grams
[18]; Mouse 6, day 12
  Body weight (grams): 21 grams
[18]; Mouse 6, day 26
  Body weight (grams): 24 grams
[18]; intramuscularly, 10 mg/kg for 2 weeks
  toxicity (weight, behaviour and appearance of the mice; in words): not toxic
